{"source": "patent US11576916B2", "about": "“Methods of preventing or treating ophthalmic diseases” (KINARUS AG, priority 2017, dated 2023)", "key": {"[1]": {"test_system": "choroidal neovascularization (CNV) in a mouse model of age-related macular degeneration", "assay": "Laser-induced CNV mouse model of AMD: isolectin B4 staining of choroidal flat-mounts (CNV lesion area)", "assay_type": "in vivo, C57BL/6J mice", "settings": "for Formation of CNV in mice, in words: conclusion of the study, versus vehicle", "method": "(§1) CNV (choroidal neovascularization) in mice or rats is an accepted model to mimic the wet form of age-related macular degeneration (AMD). The model is induced by laser photocoagulation which creates breaks in Bruchs membrane. The subsequent pathological cascade includes inflammation, angiogenesis and proteolysis.\n(§2) A study in a mouse model was performed to evaluate the efficacy of pioglitazone and pamapimod each alone or in combination on the development of CNV. Three laser burns were used to induce CNV in the eyes of C57Bl/6J mice. Pioglitazone or pamapimod or the combination of pioglitazone/pamapimod were administered orally once daily to groups of animals starting one day prior to lasering.\n(§3) Male 7-week old C57BL/6J mice (Janvier Labs, France) were obtained and housed at a constant temperature (22±+1° C.) in a light-controlled environment with ad libitum access to food and water.\n(§4) For CNV induction, animals were anesthetized with an intraperitoneal injection of ketamine (37.5 mg/kg; Ketalar, Pfizer Oy Animal Health, Helsinki, Finland) and medetomidine (0.45 mg/kg; Domitor, Orion Oy, Espoo, Finland). A drop of 0.5% tropicamid (Santen) was applied on the cornea to dilate the pupils. Laser photocoagulation was performed once using a 532 nm diode laser Lumenis Novus Spectra (Lumenis Ltd., Israel) attached to a slit lamp. A coverslip and Viscotears® gel (Novartis) were used to applanate the cornea. Three laser lesions were performed per eye. Following lasering, anesthesia was reversed by u2-antagonist medetomidine, atipamezole (0.5 mg/kg i.p., Antisedan, Orion Pharma, Espoo, Finland).\n(§5) Oral drug formulations were prepared in a vehicle adjusted to 4.8±0.05 using buffer. Test compounds [pioglitazone HCl (2.5 mg/ml), pamapimod (10 mg/ml) and combination pioglitazone HCl (2.5 mg/ml)+pamapimod (10 mg/ml)] were formulated in this vehicle and sonicated prior to administration (approx. 3 min).\nAflibercept (Eylea®, Bayer Pharma AG) was purchased as a ready-to-use solution for intravitreal injections at a concentration of 40 mg of aflibercept in 1 ml solution. The dose of 80 μg (injection volume of 2 μl) of aflibercept per mouse eye was used in the present study. […]\nThe flat-mount choroids were stained with fluorescein-labeled isolectin B4 (Vector Laboratories) to detect lesion CNV area and imaged using Leica DM IRBE microscope (Leica Microsystems, Germany) with an epifluorescent attachment and analyzed using Image J software (v.1.51f, National Institutes of Health, USA).\nQuantitative data was graphed and analyzed using GraphPad Prism software (v. 7.0, GraphPad Software Inc.). […]"}, "[2]": {"test_system": "choroidal neovascularization (CNV) in a mouse model of age-related macular degeneration", "assay": "Laser-induced CNV mouse model of AMD: retinal thickness by SD-OCT", "assay_type": "in vivo, C57BL/6J mice", "settings": "after 14 days of treatment; for CNV area retinal thickness, comparison between treatments (in words): versus vehicle, single agents or positive control aflibercept; for Difference in retinal thickness in CNV area as compared to the total retinal thickness: mean ± SD per lesion, vehicle 19.9 ± 20.7; for Difference in retinal thickness in CNV area as compared to the total retinal thickness / Total retinal thickness: SD-OCT, pioglitazone/pamapimod oral once daily, aflibercept 80 μg IVT per eye; for Total retinal thickness: mean ± SD", "method": "as §1, §2, §3, §4, §5\nAflibercept (Eylea®, Bayer Pharma AG) was purchased as a ready-to-use solution for intravitreal injections at a concentration of 40 mg of aflibercept in 1 ml solution. The dose of 80 μg (injection volume of 2 μl) of aflibercept per mouse eye was used in the present study.\nCompounds were administered either orally by gastric lavage (pioglitazone, pamapimod) at a dose of 0.2 ml volume per 20 g mouse weight or by IVT (aflibercept) using a 5 μl glass microsyringe (Hamilton Bonaduz AG, Bonaduz, Switzerland). Aflibercept was injected only into the lasered right eye. The injection volume was 2 μl per eye.\nCNV lesions were monitored using Envisu R2200 SD-OCT (Spectral Domain Optical Coherence Tomography system; Bioptigen Inc./Leica) in anesthetized mice as described above. The thickness of each retina was measured from 24 sites of randomly overlaid grid and at all three lasered sites. The total retinal thickness was considered as the thickness of all layers from nerve fiber layer to RPE (healthy measurement sites) or to an implied line connecting the RPE around the site of damage (lasered sites).\nQuantitative data was graphed and analyzed using GraphPad Prism software (v. 7.0, GraphPad Software Inc.). The D'Agostino & Pearson normality test was used for each parameter. […] Differences were considered to be statistically significant at the P<0.05 level."}}, "note": "Counter-ions that a name gives are not always drawn.", "data": [{"compound": "CCc1ccc(CCOc2ccc(CC3SC(=O)NC3=O)cc2)nc1", "note": "(centres unmarked) [STR001, pioglitazone HCl, reference compound]", "values": [{"measurement": "Formation of CNV in mice, in words", "setting": "[1]", "result": "significantly decreased"}, {"measurement": "CNV area retinal thickness, comparison between treatments (in words)", "setting": "[2]", "result": "superior to the positive control Aflibercept"}, {"measurement": "Difference in retinal thickness in CNV area as compared to the total retinal thickness", "setting": "[2]; HCl", "result": "9.86 ± 17.7", "unit": "%"}, {"measurement": "Difference in retinal thickness in CNV area as compared to the total retinal thickness", "setting": "[2]; listed as pioglitazone, HCl", "result": "9.86±17.7", "unit": "%"}, {"measurement": "Total retinal thickness", "setting": "[2]", "result": "215.8 ± 2.9", "unit": "μm"}]}, {"compound": "Cn1c(=O)c(Oc2ccc(F)cc2F)cc2cnc(NC(CCO)CCO)nc21", "note": "[STR002, 6-(2,4-Difluorophenoxy)-2-[3-hydroxy-1-(2-hydroxyethyl)-propylamino]-8-methyl-8H-pyrido[2,3-d]pyrimidin-7-one]", "values": [{"measurement": "Isolectin B4 positive area per CNV lesion (new vessel area), in words", "setting": "[1]; choroidal flat-mounts, after 14 days of treatment, Kruskal-Wallis test with Dunn's multiple comparisons", "result": "significantly different from the pioglitazone alone group"}, {"measurement": "Formation of CNV in mice, in words", "setting": "[1]", "result": "significantly decreased"}, {"measurement": "CNV area retinal thickness, comparison between treatments (in words)", "setting": "[2]", "result": "superior to the positive control Aflibercept"}, {"measurement": "Difference in retinal thickness in CNV area as compared to the total retinal thickness", "setting": "[2]", "result": "7.75 ± 22.4", "unit": "%"}, {"measurement": "Difference in retinal thickness in CNV area as compared to the total retinal thickness", "setting": "[2]; listed as pamapimod", "result": "7.75±22.4", "unit": "%"}, {"measurement": "Total retinal thickness", "setting": "[2]", "result": "216.2 ± 6.0", "unit": "μm"}]}, {"compound": "Aflibercept: Aflibercept (Eylea®, Bayer Pharma AG), ready-to-use solution for intravitreal injections; positive control", "values": [{"measurement": "Formation of CNV in mice, in words", "setting": "[1]", "result": "significantly decreased"}, {"measurement": "Difference in retinal thickness in CNV area as compared to the total retinal thickness", "setting": "[2]", "result": "16.1±26.7", "unit": "%"}, {"measurement": "Total retinal thickness", "setting": "[2]", "result": "215.7 ± 6.5", "unit": "μm"}]}]}
